# Values quoted from earlier work, collected in US20040191218A1, “Pharmaceutical compositions and methods for treating cancer” (priority 2001, published 2004).
# Legend:
# [1] = carboplatin compared with cisplatin
# [2] = test system: neoplastic cells including ovarian cancer cells
# [3] = test system: relapsing ovarian cancer; settings: 14 patients with relapsing ovarian cancer, IFN-γ 2 mg/m^2 daily intravenously
# [4] = test system: ovarian cancer; settings: intraperitoneal IFN-γ, 108 patients with residual disease at second-look laparotomy
Compound,neurotoxicity and nephrotoxicity [1],antiproliferative effects on neoplastic cells [2],Positive responses [3] [%],overall response rate [4] [%]
"[NH2][Pt]1([NH2])[O]C(=O)C2(CCC2)C(=O)[O]1 [carboplatin, diammine(1,1-cyclobutanedicarboxylato) platinum(II)]",less neurotoxicity and nephrotoxicity than cisplatin,,,
IFN-γ: lymphokine produced by T-lymphocytes; natural or recombinant interferon gamma,,exerts antiproliferative effects,29,31
